Data published in PMC12583827, “Harnessing microbial-derived metabolites in the urinary tract to prevent infection induced catheter encrustation” (Nature Communications, 2025).

Tests used:
[1] = test system: epithelial-like hepatocellular carcinoma cells (HepG2); details: cited from earlier work
[2] = test system: human gastric cancer cells (SGC-7901); details: cited from earlier work
[3] = cited from earlier work
lymphoblasts (K562) = details: cited from earlier work
P. mirabilis = assay: In vitro glass “bladder” model of catheter encrustation; assay type: cell-based, Proteus mirabilis
Procedure: A Foley catheter is inserted aseptically into the vessel through an opening at the base, the balloon is inflated, and the catheter is attached to a catheter drainage bag (Fig. 7A). The “bladder” is supplied with sterile AUM at a physiologically relevant flow rate via peristaltic pump from a media reservoir, the “kidney” (Fig. 7A). An initial bacterial inoculum of 10^8 CFU of P. mirabilis was added to the AUM in the “bladder” inner chamber to model robust bacteriuria, followed by initiation of flow (Fig. 7B). The performance of urease-dampening metabolites was evaluated as a reduction in 1) effluent AUM pH over the 24 h study period, and 2) crystalline biofilm formation and ion precipitation on catheter segments 24 h post inoculation. Urease-dampening metabolites and AHA were introduced into the system by direct dissolution into the AUM reservoirs. For each study, both positive (untreated P. mirabilis) and negative (untreated P. mirabilis urease negative mutant) controls were included. Effluent urine samples were collected at 0, 3, 6, 9, 12 and 24 h post inoculation. This preclinical model of catheter encrustation was modified to assess whether prophylactic administration of urease-dampening metabolites increases efficacy of antimicrobials against catheter biofilms, as outlined in Fig. 9A. Each experiment was performed in triplicate. Full details of experimental set up, sample collection, and processing are provided below and in Supplementary Materials.
A previously described glass “bladder” model was used, in which a 500 mL water-jacketed glass vessel is maintained at 37 °C via a circulating water bath, a Foley catheter is inserted and inflated, and artificial urine medium (AUM) is supplied into the “bladder” at a constant flow rate (0.75-1.0 mL/min) through a peristaltic pump[55],[56]. For consistency with the in vitro urease activity assays and the physiologic range of urea in healthy human urine, AUM was supplemented with 500 mM urea[57]. Urease-dampening metabolites of interest were directly dissolved in AUM 500 mM urea, adjusted to a pH of 5.8, and filter sterilized via a 0.2μm filter. “Bladders” were inoculated with 10^8 CFUs of P. mirabilis. Samples were collected from the catheter port at 0, 3, 6, 9, 12, and 24 hours to monitor pH and bacterial CFUs. Catheters segments were processed for CFUs, crystal violet staining of biofilm biomass, and ion composition at 24 h. Full details are provided in the Supplementary Methods.
236 and the segments were air dried for 15 min. Catheter segments were stained with 1.0 ml 0.1%
237 crystal violet for 10 min, washed by gentle dunking in 1X phosphate-buffered saline (PBS) to
238 remove excess stain, and solubilized in a microcentrifuge tube containing 750μL of 1% SDS
239 95% ethanol and vortexed for 5 minutes. Crystal violet absorbance (OD570) was measured in a
240 BioTek Synergy H1 microplate reader and blanked using cell-free control wells for each biofilm
243 Catheter segment biofilm viability. Catheter segments were washed by gentle dunking in 1X
244 phosphate-buffered saline (PBS) to remove any remaining planktonic bacteria and residual AUM
245 from the catheter lumen. Catheter segments were then placed in a microcentrifuge tube
246 containing 1mL of 1X PBS and vortexed for 5 minutes to solubilize the biofilm. Samples
247 underwent serial 10-fold dilutions and were spiral plated (Eddy Jet 2; Neutec Group Inc.,
248 Farmingdale, NY) onto low-salt LB agar for enumeration of CFU using a ProtoCOL 3 automated
249 colony counter (Synbiosis).
251 Catheter segment elemental composition. Catheter segments were placed in a microcentrifuge

[4] = 24 h, alone: 5 mM AHA, 25 mM histamine, 25 mM 4-imidazole acetate

CC(=O)NO [AHA, acetohydroxamic acid, reference compound]
decrease in viability of HepG2 [1]: 60-70%
decrease in viability of SGC-7901 [2]: 60-70%
efficacy in clinical trials [3]: showed efficacy in preventing urinary stone formation
severe side effects ([3]; in vivo): teratogenesis, hemolytic anemia, psychoneurological and muscular symptoms
decrease in viability of K562 (lymphoblasts (K562)): 60-70%
crystalline biofilm formation (P. mirabilis; 24 h, alone: 1.25 mM AHA, 12.5 mM histamine, 12.5 mM 4-imidazole acetate): no impact on crystalline biofilm formation
Magnesium and phosphorus precipitation on catheter segments (ICP-OES) (P. mirabilis; [4]): reduced, although the reduction was not statistically significant
catheter biofilm biomass (crystal violet) vs untreated P. mirabilis (P. mirabilis; [4]): significantly reduced biofilm biomass
pH of AUM collected from “bladders” over 24 h (P. mirabilis; alone, lower concentrations): failed to restrict pH
pH of AUM collected from “bladders” over 24 h (P. mirabilis; alone: 5 mM AHA, 25 mM histamine, 25 mM 4-imidazole acetate, nucleation point ~ pH 8): never surpassed the nucleation point
P. mirabilis CFUs in effluent over time (P. mirabilis; tested individually): no meaningful differences between CFUs over time
urease-mediated pH increase (P. mirabilis; tested individually, dose response): perturbed urease-mediated pH increase in a dose-dependent manner
